Earlier results in patent US7199111B2, “Aqueous ifosfamide compositions for parenteral administration and a process for their preparations” (Bharat Serums & Vaccines Ltd., priority 2002, dated 2007).

Assays:
mouse = settings: intravenous administration, reported
[1] = Ifosfamide in water

O=P1(NCCCl)OCCCN1CCCl (centres unmarked) [Ifosfamide, 3-(2-chloroethyl)-2-[(2-chloroethyl)amino]-tetrahydro-2H-1,3,2-oxazaphosphorin-2-oxide]
LD50 (mouse): 338 mg/kg body weight | water solubility [1]: about 100 mg/ml
